According to PMC6522914, “Benzonate derivatives of acetophenone as potent α-glucosidase inhibitors: synthesis, structure–activity relationship and mechanism” (Journal of Enzyme Inhibition and Medicinal Chemistry, 2019):
“Also recorded” adds a separate entry of the source. Where two headings read alike, the source gives them in different places. Values belong to the compound of their own block, whether it stands above or below them.

Columns and labels:
[1] = target: α-glucosidase (EC 3.2.1.20) (Saccharomyces cerevisiae, UniProt P53341); test: α-Glucosidase inhibitory assay (pNPG substrate); assay type: biochemical; conditions: in vitro
Sequence of α-glucosidase (EC 3.2.1.20) (P53341 whole entry): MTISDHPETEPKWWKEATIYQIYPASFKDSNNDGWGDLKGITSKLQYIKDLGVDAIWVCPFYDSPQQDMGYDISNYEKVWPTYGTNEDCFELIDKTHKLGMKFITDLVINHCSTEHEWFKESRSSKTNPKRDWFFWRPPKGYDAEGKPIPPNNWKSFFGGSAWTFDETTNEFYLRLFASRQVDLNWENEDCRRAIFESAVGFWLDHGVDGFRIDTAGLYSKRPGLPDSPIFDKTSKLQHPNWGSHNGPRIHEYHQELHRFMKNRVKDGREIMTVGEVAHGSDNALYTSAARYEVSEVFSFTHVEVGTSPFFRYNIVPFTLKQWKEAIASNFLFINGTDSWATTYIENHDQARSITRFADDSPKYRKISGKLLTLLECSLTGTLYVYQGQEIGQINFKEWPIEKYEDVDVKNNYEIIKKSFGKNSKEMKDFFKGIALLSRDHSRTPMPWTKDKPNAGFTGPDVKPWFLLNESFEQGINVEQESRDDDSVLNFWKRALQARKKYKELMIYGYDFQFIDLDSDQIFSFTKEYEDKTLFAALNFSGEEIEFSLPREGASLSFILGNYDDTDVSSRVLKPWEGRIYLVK
Description: The α-glucosidase inhibitory assay was performed according to a slightly modified method previously reported[21]^,[22]. In brief, a series of reaction solutions, including a fixed amount of α-glucosidase (10 unit/mL 3.75 µL), different concentrations of inhibitors (the tested compounds or positive controls, 37.5 µL), and sodium phosphate buffer (PBS, […], 0.1 M, pH 6.8), were incubated at 37 °C for 10 min. To initiate the reaction, 112.5 µL of pNPG (6.0 mM, as a substrate) was added into the pre-incubated mixtures, and the final volume of reaction system was kept at 750 µL. The p-nitrophenol released from pNPG substrate was used as the target substance to quantify the enzymatic activity. […] The negative control was prepared by adding PBS instead of α-glucosidase, the blank was prepared by adding solvent instead of tested compounds, and the inhibition rate was calculated as the following Equation (1). (1) (ODcontrol−ODcontrol blank)−(ODtest−ODtest blank)/ODcontrol−ODcontrol blank×100%

α-glucosidase [2] = target: T1, α-glucosidase (Saccharomyces cerevisiae, UniProt P53341); test: Synchronous fluorescence spectra; assay type: binding; conditions: 7u 0–6 µM, 25 °C
T1 sequence (P53341 whole entry): as above
Text: (§1) The synchronous fluorescence spectra of α-glucosidase in the absence and presence of compound 7u were scanned by setting the excitation and emission wavelength intervals (Δλ) at 15 and 60 nm, respectively. To eradicate the probability of re-absorption and inner filter effects in UV absorption, all of the fluorescence data were corrected for absorption of exciting light and emitted light, based on the Equation S1[3]^,[13].

[3] = Sucrose-loading test (postprandial blood glucose); assay type: in vivo, Kunming mice; conditions: mice, 20 mg/kg by gavage, sucrose 2.5 g/kg, 0–120 min
Description: The carbohydrate loading test was conducted according as Kato et al.[23] and Han et al.[24] reported, with slight modifications. Fifteen male Kunming mice (35–40 g) after an overnight fast were randomly divided into three groups (five mice per group). […] A blank control group was loaded with 0.5% CMC–Na solution only. The blood samples were collected from the mice’s tail vein at 0, 15, 30, 60, 90, and 120 min, and the blood glucose levels were determined by a glucose detection kit.

α-glucosidase [4] = target: T1, α-glucosidase; test: Kinetic analysis of inhibition type (Lineweaver–Burk / Michaelis–Menten); assay type: biochemical
Description: To further explore the inhibitory characteristic of this type of compounds, kinetic studies of the selected compound 7u were performed[3]^,[13]^,[26]. Different final concentrations (0.5, 1, 2, 4, and 8 µM) of the inhibitor 7u around the IC50 values were chosen. The concentration of α-glucosidase was kept at 1 µM, and the pNPG concentrations varied from 2.0 to 12.0 mM in the absence and presence of compound 7u. The type of inhibition was analyzed on the basis of the Michaelis–Menten constant (Km) and maximal rate (Vmax) of the enzyme. The parameters were determined via Lineweaver–Burk plots, which was obtained by plotting enzyme reaction velocity (ν) and substrate (pNPG), namely, 1/ν versus 1/[pNPG]. The secondary plot slope against [7u] was also determined. The protein concentration was determined according to the Bradford method[27] using bovine serum albumin as the standard.

α-glucosidase [5] = target: T1, α-glucosidase; test: Circular dichroism measurement; assay type: binding; conditions: 7u 0–4 µM, α-glucosidase 2 µM, 25 °C
Description: The CD measurements of α-glucosidase in the presence of compound 7u were conducted in far–UV region (190–250 nm), under nitrogen environment using a 1.0 mm path length cuvette. The concentration of α-glucosidase was maintained constant (2 µM) while the 7u concentration was varied as 0, 1, 2, and 4 µM. All observed CD spectra were recorded in 0.1 M PBS (pH 6.8) at 25 °C[13]^,[31].

intestinal α-glucosidase = test: Everted intestinal sleeve assay; design: species or system Sprague–Dawley rats
Description: ^1H NMR and ^13 C NMR spectra were carried out using a 500 MHz Avance spectrometer (Bruker, USA) or a Varian Mercury 400 MHz spectrometer. Chemical shifts were measured relative to the residual solvent peaks of CDCl3 with tetramethylsilane as the internal standard. High-resolution mass spectra were recorded on an AB SCIEX Triple TOF 5600+ spectrometer. The in vitro inhibitory activity and kinetic assay of α-glucosidase were measured by a microplate reader (Synergy HTX, BioTek Instruments Inc., Winooski, VT, USA). Fluorescence spectra were conducted on a spectrofluorometer (LS55, Perkin Elmer Inc., Waltham, MA, USA). […] Titration microcalorimetry measurement conducted on a Nano-ITC SV instrument (TA Instruments Ltd., UK). The surgeries were performed under anesthesia and all efforts were made to minimise animal suffering. The blood glucose levels were determined via a glucose detection kit (Robio Co., Ltd., Shanghai, China). […] The concentrations of glucose in the soaking solution and intestinal sleeve were detected using S-10 biosensor analyzer (Sieman Technology Co., Ltd., Shenzhen, China). All reaction progress was monitored by thin-layer chromatography (TLC) on silica gel GF254 (Qingdao Haiyang Chemical Co., Ltd., Qingdao, China) with ultraviolet detection. Reagents were purchased from commercial sources (Bodi Chemical Co., Ltd., Tianjin, China; Aladdin Industrial Co., Ltd., Shanghai, China), and used as received. α-Glucosidase (EC 3.2.1.20, Sigma-Aldrich Chemical, St. Louis, MO, USA); 4-nitrophenyl-α-D-glucopyranoside (pNPG) (99%, Macklin Biochemical Co., Ltd, Shanghai, China).
After a 12-h fasting, the jejunum of 200–220 g Sprague-Dawley […] was obtained. Then the proximal jejunum was flushed with pre-cold isotonic saline (4 °C) and cut into 3 cm-long segments. Each segment was weighed separately, everted and both ends were secured by tying knots. Then the sleeves were incubated (90 min at 37 °C) in mammalian Ringer’s solution containing sucrose (1.5 mM) and an appropriate concentration of the inhibitor (0.17 mM). Following the incubation, the concentrations of glucose in the soaking solution and intestinal sleeves were tested with biosensor analyzer (S-10). The total glucose concentration was calculated as glucose per gram of gut weight (mmol/g).

α-glucosidase [6] = target: T1, α-glucosidase; test: Isothermal titration calorimetry; assay type: binding; conditions: ITC, 25 °C
Description: Titration of the compound 7u into the α-glucosidase was performed at 25 °C. All the solutions were prepared in 0.1 M PBS (pH 6.8). The α-glucosidase solution (2.5μM) was placed in the 1.3 ml sample cell of the calorimeter, and the injection syringe was loaded with the solution of 7u (30μM, in 0.05% DMSO). The solution of compound 7u was titrated into the sample cell at 25 °C as a progression of 25 injections of 10μL. The time delay between each two injections was 300 s. To ensure comprehensive mixing, all the sample was stirred at a speed of 300 rpm during experiment. The control experiments included the titration of the compound 7u solution into 0.1 M PBS (pH 6.8)[33–35].

α-glucosidase [7] = target: T1, α-glucosidase; test: Fluorescence quenching and van't Hoff thermodynamics; assay type: binding; conditions: for ΔG^o: van't Hoff
Description: The steady state fluorescence emission spectra, were recorded between 300 and 500 nm at the excitation wavelength of 280 nm at three different temperatures (25, 31 and 37 °C), and both the excitation and emission slits were set at 2.5 nm. Compound 7u at different concentrations (from 0 to 6 µM) were added into the 3.0 ml solution containing a fixed amount of α-glucosidase (2μM). All of the mixtures were held for 5 min to equilibrate before measurements. The fluorescence spectra of buffer were subtracted as the background fluorescence.
as §1

α-glucosidase [8] = target: T1, α-glucosidase; conditions: cited from earlier work

α-glucosidase inhibitory activity (in words) [1]: lost the activity
Compound: CC(=O)c1cc(Br)c(OC(=O)CCCCBr)c(Br)c1O [7h]

shift of maximum emission wavelength of Tyr residues (α-glucosidase [2]; Δλ = 15 nm): No evident shift
Vmax (α-glucosidase [4]; 7u 1 µM): 1.39 ± 0.02 µM/min
Vmax (α-glucosidase [4]; 7u 2 µM): 1.24 ± 0.01 µM/min
Vmax (α-glucosidase [4]; 7u 4 µM): 1.04 ± 0.01 µM/min
Vmax (α-glucosidase [4]; 7u 8 µM): 0.84 ± 0.02 µM/min
type of inhibition (α-glucosidase [4]; Lineweaver–Burk plot): mixed-type inhibition
inhibitory activity on intestinal α-glucosidase compared with acarbose (intestinal α-glucosidase; 0.17 mM): better than that of acarbose
total concentration of glucose (intestinal α-glucosidase; 0.17 mM inhibitor, sucrose 1.5 mM, 5–90 min, versus blank): much lower than that of the blank
glucose concentration in the intestinal sleeves (intestinal α-glucosidase; 0.17 mM inhibitor, sucrose 1.5 mM, versus blank): lower than that of blank
ΔG (α-glucosidase [6]): –39.04 kJ·mol^−1
ΔH (α-glucosidase [6]): -23.901 kcal/mol
ΔS (α-glucosidase [6]): –204.50 J·mol^−1·K^−1
ΔG (α-glucosidase [6]; listed as 7 u): -9.331 kcal/mol
ΔS (α-glucosidase [6]; listed as 7 u): −204.50 J·mol^−1·K^−1
KSV (quenching constant) (α-glucosidase [7]; 25 °C): 5.00 ± 0.04 × 10^4 L·mol^−1
n (number of binding sites) (α-glucosidase [7]; 25 °C): 1.23
ΔG^o (α-glucosidase [7]; 25 °C): -7.698 ± 0.014 kcal/mol
KSV (quenching constant) (α-glucosidase [7]; 31 °C): 4.74 ± 0.03 × 10^4 L·mol^−1
n (number of binding sites) (α-glucosidase [7]; 31 °C): 1.19
ΔG^o (α-glucosidase [7]; 31 °C): -7.488 ± 0.0072 kcal/mol
KSV (quenching constant) (α-glucosidase [7]; 37 °C): 4.31 ± 0.02 × 10^4 L·mol^−1
n (number of binding sites) (α-glucosidase [7]; 37 °C): 1.15
ΔG^o (α-glucosidase [7]; 37 °C): -7.28 ± 0.0048 kcal/mol
quenching mechanism (α-glucosidase [7]; KSV versus temperature): static quenching mechanism
Kq (α-glucosidase [7]; fluorescence quenching): ~10^12 L·mol^−1·s^−1
Compound: CC(=O)c1cc(Br)c(OC(=O)c2ccccc2[N+](=O)[O-])c(Br)c1O [7u]
shift of maximum emission wavelength of Trp residues (α-glucosidase [2]; Δλ = 60 nm): noticeable red shift (from 277.5 to 286.5 nm)
effect on postprandial blood glucose levels ([3]; 20 mg/kg): significantly attenuated postprandial blood glucose in mice; also recorded: obvious repressive effect on blood glucose concentrations at peaked 15 min
CD negative bands at 209 and 220 nm (α-glucosidase [5]): both intensity of the negative bands decreased
glucose concentration in the solution outside the intestinal sleeves (intestinal α-glucosidase; 0.17 mM inhibitor, sucrose 1.5 mM): decreased the glucose concentrations in the solution present outside the intestinal sleeves

Compound: C[C@H]1O[C@H](O[C@H]2[C@H](O)[C@@H](O)[C@@H](O[C@H]3[C@H](O)[C@@H](O)C(O)O[C@@H]3CO)O[C@@H]2CO)[C@H](O)[C@@H](O)[C@@H]1N[C@H]1C=C(CO)[C@@H](O)[C@H](O)[C@H]1O (stereo partly shown) [Acarbose, acarbose, reference compound]
effect on postprandial blood glucose levels [3]: at lower level than the model group

Compound: CC(C)=CCC/C(C)=C/Cc1c(O)cc(O)c(C(=O)/C=C/c2ccc(O)cc2)c1O [compound 1, 3′-geranylchalconaringenin]
inhibition activity against α-glucosidase compared with acarbose (α-glucosidase [8]; ref Sun et al. 12): superior inhibition activity against α-glucosidase than acarbose

Compound: O=c1cc(-c2ccc(O)cc2)oc2cc(O)cc(O)c12 [compound 2, apigenin]
inhibition activity against α-glucosidase compared with acarbose (α-glucosidase [8]; ref Zeng et al. 13): superior inhibition activity against α-glucosidase than acarbose

Compound: CC(=O)c1cc(C)c(O)cc1O [compound 3, 2,4-dihydroxy-5-methylacetophenone]
α-glucosidase inhibitory activity (in words) [1]: considerable inhibitory activity against α-glucosidase in prescreen
